# Laboratory results as given in patent US20230241029A1, “METHODS OF REDUCING POST-SURGICAL METASTASIS” (priority 2018, published 2023).
# Key:
# [1] = tested on: intracellular reactive oxygen species in CD11b+LyC6+ inflammatory monocytes; settings: sponge-bearing wild type mice; HDC 1,500 μg/mouse i.p. thrice weekly; DCFDA, one week after implantation
# Experimental: The values were normalized against those of unwounded control mice on each collection day.
# (§1) To mimic the wounding inflammation associated with surgery, sterile polyvinyl alcohol (PVA) sponges (1 cm^2 with a thickness of 2 mm) were implanted subcutaneously to wild type C57BL/6 and Nox2−/− mice (mouse strain B6.129S6-Cybbtm1Din, obtained from the Jackson Laboratory) aiming to induce tissue inflammation.
# (§2) Mice received intraperitoneal injections of the NOX2-inhibitor HDC (1,500 μg/mouse) thrice weekly for 2 weeks starting two days before implantation of sponges.
# One week after implantation of sponges, before injection of melanoma cells, peripheral blood was drawn from vena saphena of wild type and Nox2−/− mice. Blood cells were stained for CD11b and Ly6C using fluorochrome-conjugated antibodies and with DCFDA to detect content of intracellular reactive oxygen species. The content of CD11b+LyC6+inflammatory monocytes in blood and their levels of intracellular radicals was determined using flow cytometry.
# B16F10 melanoma cells = settings: wild type mice with PVA sponges; HDC 1,500 μg/mouse i.p. thrice weekly for 2 weeks; foci counted 3 weeks after B16F10 injection; p<0.0001, n=10
# Experimental: as §1, §2
structure (smiles),measurement,setting,value
"Cl.Cl.NCCc1c[nH]cn1 [HDC, histamine dihydrochloride]",ROS levels in blood inflammatory monocytes,[1],trend towards reduced ROS levels
same,formation of metastases (metastatic foci in lungs) during surgical/wounding-induced inflammation,B16F10 melanoma cells,significantly reduced
